Measurements reported in BindingDB's records for patent US12091399 (Boehringer Ingelheim International, 2024).
pIC50: −log10 of the molar value.

Target: Plasma kallikrein (Homo sapiens, UniProt P03952)
Test: Evaluation of the Inhibition of PKK Using an Endpoint Assay
Procedure: Subsequently, PPACK II (Calbiochem) was added as a stop solution to achieve a final concentration of 1 μM and fluorescence was measured using an Envision Reader (PerkinElmer) with the wavelength excitation setting of 355 nm and the wavelength emission setting of 460 nm.

Chain of Plasma kallikrein (P03952 20-390 limits assumed): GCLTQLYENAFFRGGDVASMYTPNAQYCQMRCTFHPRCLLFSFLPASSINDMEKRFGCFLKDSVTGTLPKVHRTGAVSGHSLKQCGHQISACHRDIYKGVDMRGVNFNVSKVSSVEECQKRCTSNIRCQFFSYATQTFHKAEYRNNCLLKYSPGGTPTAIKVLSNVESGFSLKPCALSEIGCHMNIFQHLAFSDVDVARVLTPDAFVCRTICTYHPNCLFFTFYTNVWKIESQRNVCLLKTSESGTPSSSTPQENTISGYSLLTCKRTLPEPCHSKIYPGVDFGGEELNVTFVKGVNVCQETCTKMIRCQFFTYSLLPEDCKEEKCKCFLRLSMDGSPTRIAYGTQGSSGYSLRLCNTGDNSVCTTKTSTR
Chain of Plasma kallikrein (P03952 391-638 limits assumed): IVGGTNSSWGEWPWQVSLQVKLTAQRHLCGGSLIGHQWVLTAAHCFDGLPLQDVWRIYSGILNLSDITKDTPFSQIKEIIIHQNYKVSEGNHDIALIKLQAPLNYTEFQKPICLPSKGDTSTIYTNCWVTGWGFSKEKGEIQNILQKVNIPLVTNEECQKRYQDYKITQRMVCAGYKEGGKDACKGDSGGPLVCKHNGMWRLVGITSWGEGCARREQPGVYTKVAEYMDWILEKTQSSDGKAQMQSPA

- pIC50: 7.42
Compound: Cc1nc(N2C[C@@H]3[C@@H](N)[C@@H]3C2)ccc1Cn1cc(C(=O)NCc2cc(Cl)ccc2-n2cnnn2)cn1 [US12091399, Example 58]
